Source: publication PMC9412362, “Design, Synthesis, and Characterization of Novel Coordination Compounds of Benzimidazole Derivatives with Cadmium” (Pharmaceutics, 2022)
Converted amounts (≈) assume the structure as drawn. Like-named read-outs stand apart in the source and are kept apart here.

How the values were obtained:
[1] = test system: E. faecalis ATCC 29212; assay: MIC, micro-dilution broth method; assay type: cell-based, Enterococcus faecalis; conditions: for MIC: Enterococcus faecalis
Experimental: (§1) Samples of complexes (about 20 mg) were digested in a concentrated mixture of 36% HCl (1 mL) and 65% HNO3 (6 mL). The contents of Cd (II) in the solid complexes were determined with an F-AAS spectrometer (Analytik Jena, contraAA 300, Jena, Germany) with a continuous source of light and using an air/acetylene flame (Analytik Jena, contraAA 300). Absorbances were measured at the analytical spectral lines at 228.8 nm for Cd (II). The limit of quantification was 0.004 mg/L for Cd (II). The solid samples were decomposed using an Anton Paar Multiwave 3000 (Graz, Austria) closed-system instrument. Mineralization was carried out for 45 min at 240 °C under a pressure of 60 bar. The contents of carbon, hydrogen, and nitrogen were determined with an instrument from Vario Micro Company Elementar Analysensysteme GmbH (Langenselbold, Germany). FTIR spectra were recorded with an IR Tracer-100 Schimadzu Spectrometer (4000–600 cm^−1 with an accuracy of recording of 1 cm^−1, Kyoto, Japan) using KBr pellets. The thermal analyses were carried out with a Netzsch STA 449 F1 Jupiter thermoanalyzer (Netzsch-Geratebau GmbH, Selb, Germany) coupled with a Netzsch Aeolos Quadro QMS 403 mass spectrometer (Netzsch-Geratebau GmbH, Selb, Germany). The samples were heated up to 1000 °C in corundum crucibles with a heating rate of 10 °C/min in an atmosphere of synthetic air (20% O2, 80% N2). The cytotoxic effects of the compounds were evaluated using glioblastoma (T98G), neuroblastoma (SK-N-AS), and lung adenocarcinoma (A549) cell lines and normal human skin fibroblasts (CCD-1059Sk). T98G and SK-N-AS cells were cultured in high-glucose DMEM and A549 cells were cultured in DMEM/F12, while CCD-1059Sk cells were cultured in MEM. All media were supplemented with 10% (FBS), 100 U/mL of penicillin, and […] of streptomycin (PenStrep). Cells were incubated at 37 °C in a humidified atmosphere of 5% CO2. Stock solutions were prepared by dissolving the compounds in sterile dimethyl sulfoxide (DMSO) to obtain a concentration of 50 mg/mL. The cells were seeded into sterile 96-well plates (Nunc) at a density of 1 × 10^5 cells/mL. After 24 h of incubation, the medium was removed from each well, and then the cells were incubated for the next 24 h with different concentrations of the tested compounds (1–100 µg/mL) in their respective media containing 2% FBS. The cytotoxicity of the compounds was evaluated using an MTT assay, which was based on the conversion of 3-(4,5-dimethylthiazol-2-yl)-2,5-diphenyltetrazolium bromide (MTT) into dark-blue formazan crystals. Briefly, after 24 h of incubation of the cells with varying concentrations of the tested compounds, all culture media were removed from the plates. The cells were washed with PBS, and then 100 µL of medium containing 10% MTT solution (5 mg/mL) was added to each well. After 3 h of incubation, 100 µL (per well) of 10% SDS buffer solution was added to solubilize the formazan crystals. After overnight incubation, the absorbance was measured at 570 nm using a microplate reader (Epoch, BioTek Instruments). Experiments were repeated twice, and the measurements in each experiment were run in triplicate. The viability of the investigated cells was expressed as the percentage of the viability of the untreated cells, and the results were transformed into IC50 values (expressed as mean ± SD). The complexes were screened for antibacterial and antifungal activity by using the micro-dilution broth method with Mueller–Hinton broth for the growth of bacteria or Mueller–Hinton broth with 2% glucose for the growth of fungi. […]

[2] = test system: B. cereus ATCC 10876; assay: MIC, micro-dilution broth method; assay type: cell-based, Bacillus cereus; conditions: for MIC: Bacillus cereus
Experimental: as §1

[3] = test system: B. subtilis ATCC 6633; assay: MIC, micro-dilution broth method; assay type: cell-based, Bacillus subtilis; conditions: for MIC: Bacillus subtilis
Experimental: as §1

[4] = test system: S. aureus ATCC 25923; assay: MIC, micro-dilution broth method; assay type: cell-based, Staphylococcus aureus; conditions: for MIC: Staphylococcus aureus
Experimental: as §1

[5] = test system: M. luteus ATCC 10240; assay: MIC, micro-dilution broth method; assay type: cell-based, Micrococcus luteus; conditions: for MIC: Micrococcus luteus
Experimental: as §1

[6] = test system: S. epidermidis ATCC 12228; assay: MIC, micro-dilution broth method; assay type: cell-based, Staphylococcus epidermidis; conditions: for MIC: Staphylococcus epidermidis
Experimental: as §1

[7] = test system: P. aeruginosa ATCC 9027; assay: MIC, micro-dilution broth method; assay type: cell-based, Pseudomonas aeruginosa; conditions: for MIC: Pseudomonas aeruginosa, ATCC9027, Gram-negative bacteria
Experimental: as §1

[8] = test system: E. coli ATCC 25922; assay: MIC, micro-dilution broth method; assay type: cell-based, Escherichia coli; conditions: for MIC: Escherichia coli, ATCC25922, Gram-negative bacteria
Experimental: as §1

[9] = test system: S. typhimurium ATCC 14028; assay: MIC, micro-dilution broth method; assay type: cell-based, Salmonella Typhimurium; conditions: Gram-negative bacteria; for MIC: Salmonella enterica
Experimental: as §1

[10] = test system: P. mirabilis ATCC 12453; assay: MIC, micro-dilution broth method; assay type: cell-based, Proteus mirabilis; conditions: for MIC: Proteus mirabilis, ATCC12453, Gram-negative bacteria
Experimental: as §1

[11] = test system: K. pneumoniae ATCC 13883; assay: MIC, micro-dilution broth method; assay type: cell-based, Klebsiella pneumoniae; conditions: for MIC: Klebsiella pneumoniae, ATCC13883, Gram-negative bacteria
Experimental: as §1

[12] = test system: CCD-1059Sk cells; assay: MTT cytotoxicity assay, normal human skin fibroblasts CCD-1059Sk; assay type: cell-based; conditions: normal human fibroblasts CCD-1059Sk, MTT assay after 24 h of incubation; read-out: IC50 ± SD, CCD-1059-Sk
Experimental: as §1

[13] = test system: C. albicans ATCC 102231; assay: MIC, micro-dilution broth method; assay type: cell-based, Candida albicans
Experimental: as §1

[14] = test system: A549 cells; assay: MTT cytotoxicity assay, lung adenocarcinoma A549; assay type: cell-based, human; conditions: lung carcinoma A549, MTT assay after 24 h of incubation, read-out: IC50 ± SD, A549
Experimental: as §1

[15] = test system: SK-N-AS cells; assay: MTT cytotoxicity assay, neuroblastoma SK-N-AS; assay type: cell-based, human; conditions: MTT assay after 24 h of incubation, read-out: IC50 ± SD, SK-N-AS
Experimental: as §1

[16] = test system: T98G cells; assay: MTT cytotoxicity assay, glioblastoma T98G; assay type: cell-based, human; conditions: MTT assay after 24 h of incubation, read-out: IC50 ± SD, T98G
Experimental: as §1

[17] = test system: C. glabrata ATCC 2091; assay: MIC, micro-dilution broth method; assay type: cell-based
Experimental: as §1

[18] = test system: C. parapsilosis ATCC 22019; assay: MIC, micro-dilution broth method; assay type: cell-based, Candida parapsilosis; conditions: Yeasts, micro-dilution broth with 2% glucose
Experimental: as §1

[19] = Yeasts, micro-dilution broth with 2% glucose
[20] = Gram-positive bacteria, micro-dilution broth

## CN[C@H](CC(C)C)C(=O)N[C@H]1C(=O)N[C@@H](CC(N)=O)C(=O)N[C@H]2C(=O)N[C@H]3C(=O)N[C@H](C(=O)N[C@H](C(=O)O)c4cc(O)cc(O)c4-c4cc3ccc4O)[C@H](O)c3ccc(c(Cl)c3)Oc3cc2cc(c3O[C@@H]2O[C@H](CO)[C@@H](O)[C@H](O)[C@H]2O[C@H]2C[C@](C)(N)[C@H](O)[C@H](C)O2)Oc2ccc(cc2Cl)[C@H]1O [Van, Vancomycin, reference compound]
[1]; ATCC29212, read-out: MIC, E. faecalis ATCC 29212
  MIC: 1.95 µg/mL (≈ 1.35 µM)
[2]; ATCC10876, read-out: MIC, B. cereus ATCC 10876
  MIC: 0.98 µg/mL (≈ 0.676 µM)
[3]; ATCC6633, read-out: MIC, B. subtilis ATCC 6633
  MIC: 0.24 µg/mL (≈ 0.166 µM)
[4]; ATCC25923, read-out: MIC, S. aureus ATCC 25923
  MIC: 0.98 µg/mL (≈ 0.676 µM)
[5]; ATCC10240, read-out: MIC, M. luteus ATCC 10240
  MIC: 0.12 µg/mL (≈ 0.0828 µM)
[6]; ATCC12228, read-out: MIC, S. epidermidis ATCC 12228
  MIC: 0.98 µg/mL (≈ 0.676 µM)

## O=C(O)c1cn(C2CC2)c2cc(N3CCNCC3)c(F)cc2c1=O [Cip, ciprofloxacin, reference compound]
[7]
  MIC: 0.49 µg/mL (≈ 1.48 µM)
[8]
  MIC: 0.015 µg/mL (≈ 0.0453 µM)
[9]
  MIC: 0.061 µg/mL (≈ 0.184 µM)
[10]
  MIC: 0.03 µg/mL (≈ 0.0905 µM)
[11]
  MIC: 0.12 µg/mL (≈ 0.362 µM)

## O.[Cl][Cd][Cl].c1cnc2[nH]c(-c3ccncc3)nc2c1 [C2, Cd(L2)Cl2∙H2O]
[7]; Gram-negative bacteria
  MIC, P. aeruginosa ATCC 9027: >1000 µg/mL
[8]; Gram-negative bacteria
  MIC, E. coli ATCC 25922: 1000 µg/mL
[12]
  IC50: 44.07 ± 0.33 µM
[9]
  MIC, S. typhimurium ATCC 14028: >1000 µg/mL
[13]; [19]
  MIC, C. albicans ATCC 102231: 125 µg/mL
[14]
  IC50: 34.1 ± 0.55 µM
[15]
  IC50: 22.5 µM
[10]; Gram-negative bacteria
  MIC, P. mirabilis ATCC 12453: >1000 µg/mL
[1]; [20]
  MIC, E. faecalis ATCC 29212: 125 µg/mL
[2]; [20]
  MIC, B. cereus ATCC 10876: 500 µg/mL
[3]; [20]
  MIC, B. subtilis ATCC 6633: 0.98 µg/mL
[4]; [20]
  MIC, S. aureus ATCC 25923: 1000 µg/mL
[11]; Gram-negative bacteria
  MIC, K. pneumoniae ATCC 13883: >1000 µg/mL
[5]; [20]
  MIC, M. luteus ATCC 10240: 7.8 µg/mL
[16]
  IC50: 65.25 ± 0.63 µM
[6]; [20]
  MIC, S. epidermidis ATCC 12228: 500 µg/mL
[17]; [19]
  MIC, C. glabrata ATCC 2091: 31.3 µg/mL
[18]
  MIC, C. parapsilosis ATCC 22019: 7.8 µg/mL

## c1cnc2[nH]c(-c3ccncc3)nc2c1 [L2]
[7]
  MIC: > 1000 µg/mL
[8]
  MIC: 1000 µg/mL (≈ 5100 µM)
[12]
  IC50: > 509 µM
[9]
  MIC: 1000 µg/mL (≈ 5100 µM)
[13]; Candida albicans, ATCC102231, read-out: MIC, C. albicans ATCC 102231
  MIC: 1000 µg/mL (≈ 5100 µM)
[14]; Homo sapiens
  IC50: 220 ± 11 µM
[15]; Homo sapiens, SK-N-AS, 24 h
  IC50: 415 ± 17 µM
[10]
  MIC: 1000 µg/mL (≈ 5100 µM)
[1]; ATCC29212, Gram-positive bacteria, micro-dilution broth, read-out: MIC, E. faecalis ATCC 29212
  MIC: 1000 µg/mL (≈ 5100 µM)
[2]; ATCC10876, Gram-positive bacteria, micro-dilution broth, read-out: MIC, B. cereus ATCC 10876
  MIC: 250 µg/mL (≈ 1270 µM)
[3]; ATCC6633, Gram-positive bacteria, micro-dilution broth, read-out: MIC, B. subtilis ATCC 6633
  MIC: 500 µg/mL (≈ 2550 µM)
[4]; ATCC25923, Gram-positive bacteria, micro-dilution broth, read-out: MIC, S. aureus ATCC 25923
  MIC: 1000 µg/mL (≈ 5100 µM)
[11]
  MIC: > 1000 µg/mL
[5]; ATCC10240, Gram-positive bacteria, micro-dilution broth, read-out: MIC, M. luteus ATCC 10240
  MIC: 250 µg/mL (≈ 1270 µM)
[16]; Homo sapiens
  IC50: 178 ± 7.3 µM
[6]; ATCC12228, Gram-positive bacteria, micro-dilution broth, read-out: MIC, S. epidermidis ATCC 12228
  MIC: 1000 µg/mL (≈ 5100 µM)
[17]; Nakaseomyces glabratus, ATCC2091, read-out: MIC, C. glabrata ATCC 2091
  MIC: > 1000 µg/mL
[18]; Lodderomyces parapsilosis, ATCC22019
  MIC: > 1000 µg/mL
